One may read the CC50 as the concentration giving 50% cytotoxicity. As a reminder, the AC50 is the concentration giving half of the maximal activity seen.

The source made the active and inactive calls.

Test [1] concerns HEK293. The test can be described thus: NOD1 signaling inhibitors, primary screen, cell-based, luminescence, uHTS (AID 1578). The class given is functional. The following applies: Homo sapiens.
Test [2] has as its system HEK293. Briefly: cells. The conditions noted are these: Homo sapiens. Format: functional, cell-based.
In test [3] the test system is HEK293. The test can be described thus: cells. Format: functional, cell-based. The conditions noted are these: Homo sapiens. This is another data set of the same source.
The target of test [4] is Nucleotide-binding oligomerization domain-containing protein 2 (Homo sapiens, UniProt Q9HC29). Briefly: NOD2 signaling inhibitors, cell-based, luminescence, uHTS, HEK293 (AID 1566). The class given is functional.
Test [5] concerns HEK293. The test can be described thus: NOD2 signaling inhibitors in MDP-stimulated cells, cell-based, uHTS, luminescence (AID 2001). Format: functional. The following applies: Homo sapiens.
Test [6] has as its system HEK293. The test can be described thus: cells. Format: functional, cell-based. The following applies: Homo sapiens. The source holds these as a separate data set.
Test [7] relates to Vero. The test can be described thus: Vero cell cytotoxicity, cytotoxicity control for flavivirus capping enzyme inhibitors (AID 588742). The class given is functional. The following applies: Chlorocebus sabaeus.
Test [8] in a line: Counterscreen for inhibitors of Trypanosoma brucei methionyl tRNA synthetase (MetRS): Luminescence-based cell-based high throughput dose response assay to identify compounds that are cytotoxic to Jurkat human T lymphocyte cells. The class given is functional. In general terms: The purpose of a counterscreen is to sort out artefacts and off-target activity.
Test [9] deals with T1, Sentrin-specific protease 8 (Homo sapiens, UniProt Q96LD8).
T1 sequence (Q96LD8 whole entry): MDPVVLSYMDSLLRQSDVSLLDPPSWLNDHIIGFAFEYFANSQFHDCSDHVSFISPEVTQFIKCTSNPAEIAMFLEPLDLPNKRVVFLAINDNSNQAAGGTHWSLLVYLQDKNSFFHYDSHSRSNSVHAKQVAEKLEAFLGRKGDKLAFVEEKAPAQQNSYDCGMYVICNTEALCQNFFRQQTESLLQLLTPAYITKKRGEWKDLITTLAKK
The test can be described thus: SENP8 protease inhibitors, SAR follow-up, biochemical, luminescence (AID 504501). Format: functional.

Test [10] has as its target T2, Caspase-3 (Homo sapiens, UniProt P42574).
T2 sequence (P42574 whole entry): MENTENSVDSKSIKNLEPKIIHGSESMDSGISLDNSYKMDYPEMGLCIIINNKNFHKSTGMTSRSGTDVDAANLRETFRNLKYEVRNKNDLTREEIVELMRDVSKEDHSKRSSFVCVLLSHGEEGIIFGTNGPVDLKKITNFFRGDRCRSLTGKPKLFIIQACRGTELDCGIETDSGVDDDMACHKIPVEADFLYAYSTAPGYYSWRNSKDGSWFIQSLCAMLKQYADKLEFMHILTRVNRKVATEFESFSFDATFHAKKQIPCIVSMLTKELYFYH
Briefly: SAR Analysis of small molecule inhibitors of Sentrin-specific proteases (SENPs) using a Caspase-3 Selectivity assay. [Related pubchem assays (depositor defined):AID2540, AID2599, AID434973, AID489001]. Format: functional.

Test [11] deals with T3, Sentrin-specific protease 6 (Homo sapiens, UniProt Q9GZR1).
T3 sequence (Q9GZR1 whole entry): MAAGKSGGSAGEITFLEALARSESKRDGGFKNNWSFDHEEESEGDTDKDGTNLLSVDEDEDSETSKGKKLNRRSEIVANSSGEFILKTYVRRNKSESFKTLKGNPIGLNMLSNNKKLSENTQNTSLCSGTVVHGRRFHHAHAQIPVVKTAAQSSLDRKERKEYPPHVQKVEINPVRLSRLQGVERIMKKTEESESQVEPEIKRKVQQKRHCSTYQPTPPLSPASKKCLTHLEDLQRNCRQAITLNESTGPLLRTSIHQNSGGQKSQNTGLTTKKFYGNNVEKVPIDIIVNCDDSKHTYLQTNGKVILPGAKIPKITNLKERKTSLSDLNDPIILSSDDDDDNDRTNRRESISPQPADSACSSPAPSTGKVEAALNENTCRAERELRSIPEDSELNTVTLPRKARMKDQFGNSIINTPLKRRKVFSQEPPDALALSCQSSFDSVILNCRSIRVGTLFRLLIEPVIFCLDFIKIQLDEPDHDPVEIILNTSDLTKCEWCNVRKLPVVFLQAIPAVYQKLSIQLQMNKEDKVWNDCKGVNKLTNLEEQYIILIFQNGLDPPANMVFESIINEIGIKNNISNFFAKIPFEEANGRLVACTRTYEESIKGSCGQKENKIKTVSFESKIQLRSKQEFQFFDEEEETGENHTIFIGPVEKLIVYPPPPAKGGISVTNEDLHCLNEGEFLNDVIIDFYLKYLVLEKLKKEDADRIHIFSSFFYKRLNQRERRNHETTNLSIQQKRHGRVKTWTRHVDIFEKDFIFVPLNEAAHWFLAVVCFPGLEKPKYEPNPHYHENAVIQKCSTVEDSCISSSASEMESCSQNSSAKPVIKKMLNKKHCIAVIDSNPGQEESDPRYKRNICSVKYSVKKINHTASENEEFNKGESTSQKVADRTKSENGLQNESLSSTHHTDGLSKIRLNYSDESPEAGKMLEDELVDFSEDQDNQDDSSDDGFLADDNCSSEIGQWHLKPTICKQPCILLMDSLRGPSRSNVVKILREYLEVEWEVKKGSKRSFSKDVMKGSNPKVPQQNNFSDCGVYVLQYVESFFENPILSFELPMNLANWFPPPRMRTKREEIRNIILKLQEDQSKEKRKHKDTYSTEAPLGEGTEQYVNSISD
The test can be described thus: SAR Analysis of small molecule inhibitors of Sentrin-specific protease 6 (SENP6) using a Luminescent assay. [Related pubchem assays (depositor defined):AID2582, AID2599]. The class given is functional.

For test [12], the target named is T4, Sentrin-specific protease 7 (Homo sapiens, UniProt Q9BQF6).
T4 sequence (Q9BQF6 whole entry): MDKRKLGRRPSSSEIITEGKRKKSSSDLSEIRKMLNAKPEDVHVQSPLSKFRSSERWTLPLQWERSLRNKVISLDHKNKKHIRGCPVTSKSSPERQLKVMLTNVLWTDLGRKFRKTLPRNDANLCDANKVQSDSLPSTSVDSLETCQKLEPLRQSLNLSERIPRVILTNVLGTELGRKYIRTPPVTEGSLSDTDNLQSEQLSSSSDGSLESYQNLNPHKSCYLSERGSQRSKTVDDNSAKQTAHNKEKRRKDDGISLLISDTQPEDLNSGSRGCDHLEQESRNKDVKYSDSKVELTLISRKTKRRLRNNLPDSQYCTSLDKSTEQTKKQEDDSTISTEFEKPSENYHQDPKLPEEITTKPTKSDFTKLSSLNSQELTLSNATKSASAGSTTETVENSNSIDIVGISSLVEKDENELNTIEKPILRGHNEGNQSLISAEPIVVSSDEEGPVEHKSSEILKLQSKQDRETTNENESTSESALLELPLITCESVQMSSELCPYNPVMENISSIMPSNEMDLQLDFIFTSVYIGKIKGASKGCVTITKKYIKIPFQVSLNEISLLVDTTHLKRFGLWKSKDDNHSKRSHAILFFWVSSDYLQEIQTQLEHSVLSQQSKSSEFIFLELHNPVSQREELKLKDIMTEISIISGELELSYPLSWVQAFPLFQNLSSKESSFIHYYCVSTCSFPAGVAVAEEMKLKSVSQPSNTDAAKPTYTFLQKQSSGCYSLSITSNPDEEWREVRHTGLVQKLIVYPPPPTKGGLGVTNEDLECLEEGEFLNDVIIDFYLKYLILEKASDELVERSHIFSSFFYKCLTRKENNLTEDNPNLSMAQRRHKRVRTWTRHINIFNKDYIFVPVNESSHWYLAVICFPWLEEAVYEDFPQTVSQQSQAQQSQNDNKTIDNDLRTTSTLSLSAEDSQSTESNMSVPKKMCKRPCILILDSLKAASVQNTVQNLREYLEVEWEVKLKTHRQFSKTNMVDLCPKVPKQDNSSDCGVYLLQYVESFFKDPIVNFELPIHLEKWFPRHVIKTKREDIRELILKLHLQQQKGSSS
Briefly: SENP7 protease inhibitors, SAR follow-up, biochemical, luminescence (AID 504497). The class given is functional.

Test [13] relates to HEK293. The test can be described thus: inhibitors of LMP1-driven NF-kB reporter, dose response, cell-based, HEK293, luciferase, cherry-pick (AID 588343). Format: functional. The following applies: Homo sapiens.
The target in test [14] is Latent membrane protein 1 (Human herpesvirus 4 (strain B95-8), UniProt P03230). The test can be described thus: TES1-eGFP NF-kB reporter inhibition versus Tet-On dsRED, dose response, selectivity assay for LMP1 NF-kB inhibitor project, imaging, HEK293T, dual-color eGFP/dsRED, cherry-picks (AID 588398). The class given is functional, cell-based.
The target of test [15] is T5, Corticotropin-releasing factor receptor 2/Corticotropin-releasing factor-binding protein (Homo sapiens, UniProt P24387+Q13324).
T5 sequence (Q13324 whole entry): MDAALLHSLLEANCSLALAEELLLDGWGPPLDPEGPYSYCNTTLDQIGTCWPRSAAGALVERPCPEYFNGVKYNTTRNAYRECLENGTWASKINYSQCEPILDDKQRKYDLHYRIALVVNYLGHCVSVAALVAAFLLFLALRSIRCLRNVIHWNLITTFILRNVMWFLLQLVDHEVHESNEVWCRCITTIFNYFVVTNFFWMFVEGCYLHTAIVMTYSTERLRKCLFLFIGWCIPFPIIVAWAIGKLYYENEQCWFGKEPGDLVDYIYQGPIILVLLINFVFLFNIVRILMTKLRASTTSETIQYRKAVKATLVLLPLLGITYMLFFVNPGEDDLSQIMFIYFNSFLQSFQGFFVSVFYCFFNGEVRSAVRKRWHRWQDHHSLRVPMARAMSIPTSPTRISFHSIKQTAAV
T5 sequence (P24387 whole entry): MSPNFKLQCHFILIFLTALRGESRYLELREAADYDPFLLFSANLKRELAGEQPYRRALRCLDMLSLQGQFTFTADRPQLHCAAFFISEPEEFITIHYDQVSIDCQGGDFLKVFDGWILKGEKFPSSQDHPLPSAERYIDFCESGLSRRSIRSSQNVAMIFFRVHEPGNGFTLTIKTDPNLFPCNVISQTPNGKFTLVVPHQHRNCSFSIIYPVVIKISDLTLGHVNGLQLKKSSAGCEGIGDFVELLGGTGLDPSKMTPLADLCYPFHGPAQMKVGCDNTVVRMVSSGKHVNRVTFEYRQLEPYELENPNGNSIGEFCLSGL
Briefly: Dose Response confirmation of uHTS hits for small molecule antagonists of the CRF-binding protein and CRF-R2 receptor complex. The class given is functional. The conditions noted are these: read-out: IC50_Mean.

Test [16] concerns the target T5, Corticotropin-releasing factor receptor 2/Corticotropin-releasing factor-binding protein. Briefly: activators of CRF receptor 2 with binding protein – uHTS hits, confirmation (AID 602473). The class given is functional. The following applies: read-out: EC50_Mean.
Test [17] can be described thus: CRF-BP/CRF-R2 complex antagonists, dose response, cell-based, uHTS hits, 384-well (AID 651639). Format: functional, Homo sapiens. The conditions noted are these: read-out: IC50_Mean.
In test [18] the target is Interleukin-8 (Homo sapiens, UniProt P10145). The test can be described thus: Dose Response confirmation of uHTS small molecule hits for cystic fibrosis induced NFkb Inhibitors in a PAF-induced IL8 counterscreen. The class given is functional. The following applies: read-out: IC50_Mean.
Sequence of Interleukin-8 (P10145 whole entry): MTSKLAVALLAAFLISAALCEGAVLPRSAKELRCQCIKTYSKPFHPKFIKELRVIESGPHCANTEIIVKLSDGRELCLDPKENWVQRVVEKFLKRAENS

Sequence of Latent membrane protein 1 (P03230 whole entry): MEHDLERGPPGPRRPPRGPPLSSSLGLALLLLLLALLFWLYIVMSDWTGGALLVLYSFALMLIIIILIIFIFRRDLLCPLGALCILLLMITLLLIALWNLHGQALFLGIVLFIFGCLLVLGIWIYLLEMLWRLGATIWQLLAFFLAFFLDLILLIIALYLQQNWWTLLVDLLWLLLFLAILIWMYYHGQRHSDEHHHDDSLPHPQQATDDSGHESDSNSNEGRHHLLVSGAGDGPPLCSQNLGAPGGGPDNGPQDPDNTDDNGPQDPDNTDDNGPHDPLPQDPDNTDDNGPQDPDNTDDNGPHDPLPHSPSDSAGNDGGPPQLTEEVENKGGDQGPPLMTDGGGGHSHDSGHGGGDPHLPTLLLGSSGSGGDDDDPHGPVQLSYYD
Sequence of Nucleotide-binding oligomerization domain-containing protein 2 (Q9HC29 whole entry, the tested form may be a part): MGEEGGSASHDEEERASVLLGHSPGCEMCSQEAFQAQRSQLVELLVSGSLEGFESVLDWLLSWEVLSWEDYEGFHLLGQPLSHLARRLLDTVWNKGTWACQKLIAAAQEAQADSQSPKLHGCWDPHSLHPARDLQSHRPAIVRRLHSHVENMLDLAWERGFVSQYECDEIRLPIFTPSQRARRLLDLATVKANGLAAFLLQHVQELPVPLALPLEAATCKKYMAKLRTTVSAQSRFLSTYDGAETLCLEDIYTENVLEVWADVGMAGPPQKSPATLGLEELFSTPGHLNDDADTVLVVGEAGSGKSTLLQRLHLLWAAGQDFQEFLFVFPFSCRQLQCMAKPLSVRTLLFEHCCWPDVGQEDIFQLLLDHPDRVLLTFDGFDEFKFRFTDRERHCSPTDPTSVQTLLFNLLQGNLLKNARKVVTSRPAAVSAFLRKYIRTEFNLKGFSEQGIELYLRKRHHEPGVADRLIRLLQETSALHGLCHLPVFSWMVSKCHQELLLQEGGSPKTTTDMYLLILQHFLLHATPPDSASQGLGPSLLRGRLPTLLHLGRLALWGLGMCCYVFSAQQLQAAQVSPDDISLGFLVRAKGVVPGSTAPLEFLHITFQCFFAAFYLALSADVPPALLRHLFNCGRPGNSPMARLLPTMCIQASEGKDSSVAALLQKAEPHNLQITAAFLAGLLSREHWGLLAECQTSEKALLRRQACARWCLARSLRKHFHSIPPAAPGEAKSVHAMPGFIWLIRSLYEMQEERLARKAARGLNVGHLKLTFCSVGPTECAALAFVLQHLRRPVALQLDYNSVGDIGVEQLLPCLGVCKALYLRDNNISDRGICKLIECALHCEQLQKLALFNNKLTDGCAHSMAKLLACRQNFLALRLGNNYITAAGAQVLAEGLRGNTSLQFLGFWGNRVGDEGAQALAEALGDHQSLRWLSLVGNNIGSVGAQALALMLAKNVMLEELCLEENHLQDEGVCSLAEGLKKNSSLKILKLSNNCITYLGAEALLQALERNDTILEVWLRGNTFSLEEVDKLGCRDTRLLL

As to `O=C(NCc1cc(Br)cc(Br)c1OC(=O)c1ccccc1[N+](=O)[O-])c1ccccc1`, the EC50 in test [1] was 6.43 µM (active); in [4] it was 18.6 µM (active). In addition, the IC50 is 5.22 µM (active) in [2]; > 20 µM (inactive) in [3]; 5.6 µM (active) in [5]; > 20 µM (inactive) in [6]; 50.3 µM (inactive) in test [8]. Further, the CC50 in test [7] is > 40 µM (active).
For `O=C(Cc1cccc(C(F)(F)F)c1)N(c1ccccc1)c1nc(-c2ccccc2)ns1`, the IC50 in test [9], in test [10], in test [11] and in test [12] was > 99 µM (inactive) throughout.
For `CC(C)c1cc(NC(=O)c2ccccc2)cc(C(C)C)c1O`, the AC50 in test [13] is 98.1 µM (active); in test [14] it was 30 µM (active). For the same compound, the IC50 in test [15] was < 0.368 µM (active); in test [17], 5.7 µM (active). In [16], the EC50 is > 53 µM (inactive).
As for `COc1ccc(-c2csc3ncnc(NCCN4CCOCC4)c23)cc1`, the AC50 is 25.3 µM (active) in test [13] and 21.3 µM (active) in [14]. For the same compound, the IC50 in test [18] is 50.7 µM (inactive).
As to `NC(=O)c1ccc(OC2CSC2)cc1`, the IC50 in [9] was 7.5 µM (active); in test [10], > 99 µM (inactive); in test [11], 18.7 µM (active); in [12], > 99 µM (inactive).

The values above are taken from ChEMBL document CHEMBL1201862, “PubChem BioAssay data set” (2004).
